Data: ChEMBL document CHEMBL1128762, “The design of polar -turn dipeptide mimetics” (Bioorg Med Chem Lett, 1995)
pIC50: −log10 of the molar value. Positions of bridges follow the written chain, without caps; N, C: chain ends. Non-standard residues stand in square brackets, D forms with d. Residues, ends and D or L forms follow the SMILES beside them. *: point of attachment. Cbz = O=C(OCc1ccccc1)*; Dap = NC[C@H](N)C(=O)O

Key:
Substance-K receptor = biological target: T1, Substance-K receptor (Mesocricetus auratus, UniProt P51144); test: Binding affinity towards Tachykinin receptor 2 using [125I]iodohistidyl-NKA (0.1 nM)) as radioligand; design: species or system Cricetulus griseus
T1 sequence (P51144 whole entry): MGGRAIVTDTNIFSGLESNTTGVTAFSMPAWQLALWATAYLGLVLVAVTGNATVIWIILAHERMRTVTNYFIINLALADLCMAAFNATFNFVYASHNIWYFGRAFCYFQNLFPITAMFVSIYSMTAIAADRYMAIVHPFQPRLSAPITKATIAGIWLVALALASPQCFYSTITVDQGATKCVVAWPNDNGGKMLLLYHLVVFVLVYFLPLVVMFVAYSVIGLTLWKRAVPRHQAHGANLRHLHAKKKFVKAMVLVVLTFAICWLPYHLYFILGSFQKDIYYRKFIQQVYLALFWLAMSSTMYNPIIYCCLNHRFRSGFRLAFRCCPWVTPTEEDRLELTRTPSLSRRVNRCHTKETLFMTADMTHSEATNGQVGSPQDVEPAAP

Neuromedin-K receptor = biological target: T2, Neuromedin-K receptor (Homo sapiens, UniProt P29371); test: Binding affinity towards Tachykinin receptor 3 using [125I]-[Mephe7] NKB as radioligand
T2 sequence (P29371 whole entry): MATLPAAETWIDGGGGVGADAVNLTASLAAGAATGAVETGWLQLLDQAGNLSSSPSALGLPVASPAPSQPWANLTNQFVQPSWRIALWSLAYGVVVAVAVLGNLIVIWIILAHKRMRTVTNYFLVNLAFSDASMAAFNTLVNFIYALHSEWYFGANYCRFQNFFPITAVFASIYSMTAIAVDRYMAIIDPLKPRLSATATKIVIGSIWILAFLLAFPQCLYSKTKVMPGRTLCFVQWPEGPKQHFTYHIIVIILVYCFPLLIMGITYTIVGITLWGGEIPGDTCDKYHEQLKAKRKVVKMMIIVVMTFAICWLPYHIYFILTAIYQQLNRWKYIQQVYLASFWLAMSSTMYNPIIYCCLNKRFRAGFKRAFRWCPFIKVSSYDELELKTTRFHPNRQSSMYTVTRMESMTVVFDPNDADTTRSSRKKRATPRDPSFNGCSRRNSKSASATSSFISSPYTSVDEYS

Compound	pIC50 (Substance-K receptor)	pIC50 (Neuromedin-K receptor)
O=C(Cc1c[nH]c2ccccc12)N1CCC(Cc2ccccc2)C1 (stereo unspecified)	< 5.00	–
O=C(Cc1ccccc1)N1CCC(Cc2ccccc2)C1 (stereo unspecified)	–	5.03
Ac-LMQWFG-OH	4.70	–
CSCC[C@@H]1NC(=O)[C@H](CC(C)C)NC(=O)[C@@H]2CNC(=O)C[C@H](NC1=O)C(=O)N[C@@H](Cc1c[nH]c3ccccc13)C(=O)N[C@@H](Cc1ccccc1)C(=O)N2 (cyclo(DWF[Dap]LM); lactam 1-4)	< 5.00	–
NC(=O)[C@H](Cc1ccccc1)NC(=O)[C@H](Cc1c[nH]c2ccccc12)NC(=O)OCc1ccccc1 (Cbz-Trp-Phe-NH2)	5.28	5.03
